Legend:
Type in all cases: in vivo
[1] = tested on: pigweed (Amaranthus retroflexus); assay: Test A preemergence, directed soil spray, visual injury rating; details: approx. 10 d, 0 = no effect, 100 = complete control
Summary of the method: (§1)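 Rated visually against untreated controls after approx. 10 d in greenhouse, scale 0 = no effect, 100 = complete control. Seeded loam/sand blend given directed soil spray preemergence, or plants sprayed at one- to two-leaf stage, 2-10 cm tall; surfactant-containing non-phytotoxic solvent formulation.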

[2] = tested on: barnyardgrass (Echinochloa crus-galli); assay: as above; details: approx. 10 d, 0 = no effect, 100 = complete control
Summary of the method: as §1

[3] = tested on: ragweed (common ragweed, Ambrosia elation); assay: as above; details: approx. 10 d, 0 = no effect, 100 = complete control
Summary of the method: as §1

[4] = tested on: foxtail, giant (giant foxtail, Setaria faberii); assay: as above; details: approx. 10 d, 0 = no effect, 100 = complete control
Summary of the method: as §1

[5] = tested on: ryegrass, Italian (Italian ryegrass, Lolium multiflorum); assay: as above; details: approx. 10 d, 0 = no effect, 100 = complete control
Summary of the method: as §1

kochia (Kochia scoparia) [6] = assay: as above; details: approx. 10 d, 0 = no effect, 100 = complete control
Summary of the method: as §1

[7] = tested on: wheat (Triticum aestivum); assay: Test A postemergence application, visual injury rating; details: approx. 10 d, 0 = no effect, 100 = complete control
Summary of the method: as §1

[8] = tested on: pigweed (Amaranthus retroflexus); assay: as above; details: approx. 10 d, 0 = no effect, 100 = complete control
Summary of the method: as §1

[9] = tested on: barnyardgrass (Echinochloa crus-galli); assay: as above; details: approx. 10 d, 0 = no effect, 100 = complete control
Summary of the method: as §1

[10] = tested on: galium (catchweed bedstraw, Galium aparine); assay: as above; details: approx. 10 d, 0 = no effect, 100 = complete control
Summary of the method: as §1

[11] = tested on: ragweed (common ragweed, Ambrosia elation); assay: as above; details: approx. 10 d, 0 = no effect, 100 = complete control
Summary of the method: as §1

[12] = tested on: blackgrass (Alopecurus myosuroides); assay: as above; details: approx. 10 d, 0 = no effect, 100 = complete control
Summary of the method: as §1

[13] = tested on: foxtail, giant (giant foxtail, Setaria faberii); assay: as above; details: approx. 10 d, 0 = no effect, 100 = complete control
Summary of the method: as §1

[14] = tested on: ryegrass, Italian (Italian ryegrass, Lolium multiflorum); assay: as above; details: approx. 10 d, 0 = no effect, 100 = complete control
Summary of the method: as §1

corn (Zea mays) = assay: as above; details: approx. 10 d, 0 = no effect, 100 = complete control
Summary of the method: as §1

kochia (Kochia scoparia) [15] = assay: as above; details: approx. 10 d, 0 = no effect, 100 = complete control
Summary of the method: as §1

[16] = tested on: sedge, umbrella (small-flower umbrella sedge, Cyperus difformis); assay: Test B flooded paddy test, visual plant response rating; details: applied to paddy water at 2-leaf stage, rated after 13 to 15 days, scale 0 to 100, 0 is no effect, 100 is complete control
Summary of the method: (§2)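 Water stood 3 cm above the soil when compounds were applied into it, and it was kept there for the whole test. After 13 to 15 days in the greenhouse, plants were compared with controls and rated visually from 0 (no effect) to 100 (complete control).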

rice (Oryza sativa) = assay: as above; details: applied to paddy water at 2-leaf stage, rated after 13 to 15 days, scale 0 to 100, 0 is no effect, 100 is complete control
Summary of the method: as §2

[17] = tested on: ducksalad (Heteranthera limosa); assay: as above; details: applied to paddy water at 2-leaf stage, rated after 13 to 15 days, scale 0 to 100, 0 is no effect, 100 is complete control
Summary of the method: as §2

[18] = tested on: barnyardgrass (Echinochloa crus-galli); assay: as above; details: applied to paddy water at 2-leaf stage, rated after 13 to 15 days, scale 0 to 100, 0 is no effect, 100 is complete control
Summary of the method: as §2

SMILES: O=C(Nc1ccccc1F)C1c2nncn2CC1c1cccc(C(F)(F)F)c1 (stereo not drawn) [Compound 2, N-(2-fluorophenyl)-6,7-dihydro-6-[3-(trifluoromethyl)phenyl]-5H-pyrrolo[2,1-c]-1,2,4-triazole-7-carboxamide]
- Pigweed plant response rating (0 to 100 scale) ([1]; 125 g ai/ha): 0
- Pigweed plant response rating (0 to 100 scale) ([1]; 500 g ai/ha): 0
- Barnyardgrass plant response rating (0 to 100 scale) ([2]; 125 g ai/ha): 60
- Barnyardgrass plant response rating (0 to 100 scale) ([2]; 500 g ai/ha): 90
- Ragweed plant response rating (0 to 100 scale) ([3]; 125 g ai/ha): 0
- Ragweed plant response rating (0 to 100 scale) ([3]; 500 g ai/ha): 0
- Foxtail, Giant plant response rating (0 to 100 scale) ([4]; 125 g ai/ha): 90
- Foxtail, Giant plant response rating (0 to 100 scale) ([4]; 500 g ai/ha): 90
- Ryegrass, Italian plant response rating (0 to 100 scale) ([5]; 125 g ai/ha): 0
- Ryegrass, Italian plant response rating (0 to 100 scale) ([5]; 500 g ai/ha): 0
- Kochia plant response rating (0 to 100 scale) (kochia (Kochia scoparia) [6]; 125 g ai/ha): 0
- Kochia plant response rating (0 to 100 scale) (kochia (Kochia scoparia) [6]; 500 g ai/ha): 0
- Wheat plant response rating (0 to 100 scale) ([7]; 125 g ai/ha): 0
- Wheat plant response rating (0 to 100 scale) ([7]; 500 g ai/ha): 50
- Pigweed plant response rating (0 to 100 scale) ([8]; 125 g ai/ha): 0
- Pigweed plant response rating (0 to 100 scale) ([8]; 500 g ai/ha): 10
- Barnyardgrass plant response rating (0 to 100 scale) ([9]; 125 g ai/ha): 60
- Barnyardgrass plant response rating (0 to 100 scale) ([9]; 500 g ai/ha): 80
- Galium plant response rating (0 to 100 scale) ([10]; 125 g ai/ha): 50
- Galium plant response rating (0 to 100 scale) ([10]; 500 g ai/ha): 50
- Ragweed plant response rating (0 to 100 scale) ([11]; 125 g ai/ha): 0
- Ragweed plant response rating (0 to 100 scale) ([11]; 500 g ai/ha): 10
- Blackgrass plant response rating (0 to 100 scale) ([12]; 125 g ai/ha): 40
- Blackgrass plant response rating (0 to 100 scale) ([12]; 500 g ai/ha): 70
- Foxtail, Giant plant response rating (0 to 100 scale) ([13]; 125 g ai/ha): 50
- Foxtail, Giant plant response rating (0 to 100 scale) ([13]; 500 g ai/ha): 90
- Ryegrass, Italian plant response rating (0 to 100 scale) ([14]; 125 g ai/ha): 0
- Ryegrass, Italian plant response rating (0 to 100 scale) ([14]; 500 g ai/ha): 50
- Corn plant response rating (0 to 100 scale) (corn (Zea mays); 125 g ai/ha): 20
- Corn plant response rating (0 to 100 scale) (corn (Zea mays); 500 g ai/ha): 40
- Kochia plant response rating (0 to 100 scale) (kochia (Kochia scoparia) [15]; 125 g ai/ha): 0
- Kochia plant response rating (0 to 100 scale) (kochia (Kochia scoparia) [15]; 500 g ai/ha): 30
- Plant response rating, Flood, Sedge, Umbrella ([16]; 500 g ai/ha): 0
- Plant response rating, Flood, Rice (rice (Oryza sativa); 500 g ai/ha): 0
- Plant response rating, Flood, Ducksalad ([17]; 500 g ai/ha): 0
- Plant response rating, Flood, Barnyardgrass ([18]; 500 g ai/ha): 0

SMILES: CCc1ccc(C2Cn3cnnc3C2C(=O)Nc2cccc(F)c2C)cc1 (stereo not drawn) [Compound 28]
- Pigweed plant response rating (0 to 100 scale) ([1]; 125 g ai/ha): 0
- Pigweed plant response rating (0 to 100 scale) ([1]; 500 g ai/ha): 0
- Barnyardgrass plant response rating (0 to 100 scale) ([2]; 125 g ai/ha): 60
- Barnyardgrass plant response rating (0 to 100 scale) ([2]; 500 g ai/ha): 90
- Ragweed plant response rating (0 to 100 scale) ([3]; 125 g ai/ha): 0
- Ragweed plant response rating (0 to 100 scale) ([3]; 500 g ai/ha): 30
- Foxtail, Giant plant response rating (0 to 100 scale) ([4]; 125 g ai/ha): 70
- Foxtail, Giant plant response rating (0 to 100 scale) ([4]; 500 g ai/ha): 90
- Ryegrass, Italian plant response rating (0 to 100 scale) ([5]; 125 g ai/ha): 0
- Ryegrass, Italian plant response rating (0 to 100 scale) ([5]; 500 g ai/ha): 30
- Kochia plant response rating (0 to 100 scale) (kochia (Kochia scoparia) [6]; 125 g ai/ha): 60
- Kochia plant response rating (0 to 100 scale) (kochia (Kochia scoparia) [6]; 500 g ai/ha): 60
- Wheat plant response rating (0 to 100 scale) ([7]; 125 g ai/ha): 0
- Wheat plant response rating (0 to 100 scale) ([7]; 500 g ai/ha): 0
- Pigweed plant response rating (0 to 100 scale) ([8]; 125 g ai/ha): 0
- Pigweed plant response rating (0 to 100 scale) ([8]; 500 g ai/ha): 0
- Barnyardgrass plant response rating (0 to 100 scale) ([9]; 125 g ai/ha): 50
- Barnyardgrass plant response rating (0 to 100 scale) ([9]; 500 g ai/ha): 80
- Galium plant response rating (0 to 100 scale) ([10]; 125 g ai/ha): 20
- Galium plant response rating (0 to 100 scale) ([10]; 500 g ai/ha): 30
- Ragweed plant response rating (0 to 100 scale) ([11]; 125 g ai/ha): 0
- Ragweed plant response rating (0 to 100 scale) ([11]; 500 g ai/ha): 0
- Blackgrass plant response rating (0 to 100 scale) ([12]; 125 g ai/ha): 20
- Blackgrass plant response rating (0 to 100 scale) ([12]; 500 g ai/ha): 40
- Foxtail, Giant plant response rating (0 to 100 scale) ([13]; 125 g ai/ha): 40
- Foxtail, Giant plant response rating (0 to 100 scale) ([13]; 500 g ai/ha): 60
- Ryegrass, Italian plant response rating (0 to 100 scale) ([14]; 125 g ai/ha): 0
- Ryegrass, Italian plant response rating (0 to 100 scale) ([14]; 500 g ai/ha): 50
- Corn plant response rating (0 to 100 scale) (corn (Zea mays); 125 g ai/ha): 0
- Corn plant response rating (0 to 100 scale) (corn (Zea mays); 500 g ai/ha): 0
- Kochia plant response rating (0 to 100 scale) (kochia (Kochia scoparia) [15]; 125 g ai/ha): 20
- Kochia plant response rating (0 to 100 scale) (kochia (Kochia scoparia) [15]; 500 g ai/ha): 50
- Plant response rating, Flood, Sedge, Umbrella ([16]; 250 g ai/ha): 75
- Plant response rating, Flood, Rice (rice (Oryza sativa); 250 g ai/ha): 20
- Plant response rating, Flood, Ducksalad ([17]; 250 g ai/ha): 90
- Plant response rating, Flood, Barnyardgrass ([18]; 250 g ai/ha): 40
